What was measured:
[1] = target: T1, KRas G12D (Homo sapiens, UniProt P01116, G12D); assay: KRas G12D Surface Plasmon Resonance (SPR) Binding Assay; details: Biacore T200, 20° C., 1:1 binding model, read-out: KD (nM), Determination of KRas G12D KD
T1 construct: Avidin-tag (so in the source)
Method: This Example illustrates that exemplary compounds of the present invention bind to KRas G12D as measured by surface plasmon resonance (SPR).
Briefly, 1 L of 1.05×HBS-Mg buffer (262.5 mM BioUltra Hepes, pH 7.5, 157.5 mM NaCl, 105 mM MgCl2, 0.525 mM TCEP, 0.0305% Brij-35) was prepared and filter sterilized using a 0.22 μm bottle top filter. Approximately 50 mL of 1.05×HBS-Mg buffer was removed and saved for future dilutions. A 50 mL aliquot of DMSO (Sigma Aldrich DMSO Lot. #SHBK2079) was added and continued to stir for 10 minutes, creating the final 1.0×HBS-Mg buffer (250 mM BioUltra Hepes pH 7.5, 150 mM NaCl, 100 mM MgCl2, 0.5 mM TCEP, 0.03% Brij-35).
Biacore T200 instrument was primed using 1.0×HBS-Mg buffer before docking a GE Streptavidin (SA) chip and then primed two additional times prior to beginning the immobilization step. All immobilized protein mixtures were created using 3-5 mg/mL Biotinylated Avidin-tagged KRAS protein using the following immobilization settings: SA chip type, 1 flow cells per cycle, 720 second contact time, and 5 μL/min flow rate. Normalization of the detector was also performed during the immobilization step using the GE BiaNormalize solution.
All compounds were diluted to 10 mM in 100% DMSO prior to being diluted 20× in 1.05× buffer. Another 10× dilution was created using 1.0× buffer prior to performing a series of 3×dilutions to create a compound concentration curve using the following assay settings: 20° C. analysis temperature, General Settings=10 Hz data collection rate and multi-detection; Assay Steps=all set to LMW kinetics; Cycle Types=LMW kinetics (60 s contact time, 120 s dissociation time, 100 μL/min flow rate, extra wash after injection with 50% DMSO, flow path 1, 2, 3, 4); Flow path detection=2−1, 4−3). Data evaluation was performed using the Biacore T200 Evaluation software and data fit to 1:1 binding model.

[2] = target: T2, GDP-loaded recombinant human KRAS G12D (Homo sapiens, UniProt P01116, G12D); assay: KRas G12D Binding Assay (TR-FRET displacement of Cy5 labelled tracer); details: 60 minute incubation at 22° C.
T2 construct: corresponding to amino acids 1:169, produced at Array BioPharma; biotin (biotinylated); made in house
T2 sequence (P01116 1-169 isoform P01116-2 G12D): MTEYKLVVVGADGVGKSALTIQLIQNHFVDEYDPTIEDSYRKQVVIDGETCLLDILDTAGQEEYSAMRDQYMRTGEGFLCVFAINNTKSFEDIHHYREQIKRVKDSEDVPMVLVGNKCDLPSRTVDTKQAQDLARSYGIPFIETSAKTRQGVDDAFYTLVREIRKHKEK
Method: This Example illustrates that exemplary compounds of the present invention bind to KRas G12D and are capable of displacing a labeled tracer ligand occupying the KRas G12D binding site.
The ability of a compound to bind to KRAS G12D was measured using a TR-FRET displacement assay. Biotinylated GDP-loaded recombinant human KRAS G12D (corresponding to amino acids 1:169, produced at Array BioPharma) was incubated with a custom-made Cy5 labelled tracer, europium labelled streptavidin and compound (2% DMSO final) in buffer (50 mM HEPES [pH 7.5], 5 mM MgCl2, 0.005% Tween-20 & 1 mM DTT). After a 60 minute incubation at 22° C., the reaction was measured using a PerkinElmer EnVision multimode plate reader via TR-FRET dual wavelength detection, and the percent of control (POC) calculated using a ratiometric emission factor. […] The POC values were fit to a 4-parameter logistic curve and the IC50 value was determined as the concentration where the curve crosses 50 POC.

[3] = system: KRas G12D-mediated phosphorylation of ERK; assay: Inhibition of KRas G12D-mediated phosphorylation of ERK in AGS cells; format: cell-based; details: Homo sapiens; AGS cells expressing G12D, 3 hours, phospho-ERK normalized to GAPDH
Method: AGS cells (ATCC CRL-1739) expressing G12D were grown in DMEM medium supplemented with 10% fetal bovine serum, 10 mM HEPES, and Penicillin/Streptomycin. Cells were plated in tissue culture treated 96 well plates at a density of 40,000 cells/well and allowed to attach for 12-14 hours. Diluted compounds were then added in a final concentration of 0.5% DMSO. After 3 hours, the medium was removed, 150 μl of 4.0% formaldehyde was added and the plates incubated at room temperature for 20 minutes. The plates were washed with PBS, and permeabilized with 150p of ice cold 100% methanol for 10 minutes. Non-specific antibody binding to the plates was blocked using 100 μL Licor blocking buffer (Li-Cor Biotechnology, Lincoln NE) for 1 hour at room temperature.
The amount of phosho-ERK was determined using an antibody specific for the phosphorylated form of ERK and compared to the amount of GAPDH. Primary antibodies used for the detection were added as follows: Phospho-ERK (Cell Signaling cs-9101) diluted 1:500 and GAPDH (Millipore MAB374) diluted 1:5000 in Licor block+0.05% Tween 20. The plates were incubated for 2 hours at room temperature. The plates were washed with PBS+0.05% Tween 20.
Secondary antibodies used to visualize primary antibodies were added as follows: Anti-rabbit-680 diluted 1:1000 and Anti-mouse-800 diluted 1:1000 both in Licor block+0.05% Tween20, and were incubated for 1 hour at room temperature. The plates were washed with PBS +0.05% Tween 20. A 100 μl aliquot of PBS was added to each well and the plates were read on a Li-Cor Odyssey CLX plate reader phospho-ERK (Thr202/Tyr204) signal was normalized to the GAPDH signal for each well and percent of DMSO control values were calculated. IC50 values were generated using a 4-parameter fit of the dose response curve

T1 sequence (P01116 1-188 isoform P01116-2 G12D): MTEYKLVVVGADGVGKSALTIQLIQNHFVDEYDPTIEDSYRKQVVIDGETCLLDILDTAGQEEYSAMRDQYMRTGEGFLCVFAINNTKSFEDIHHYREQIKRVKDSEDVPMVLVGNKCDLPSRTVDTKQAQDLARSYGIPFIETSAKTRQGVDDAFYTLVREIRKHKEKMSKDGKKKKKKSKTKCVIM

| Compound | Kd [1] [nM] | IC50 [2] [nM] | IC50 [3] [nM] |
| --- | --- | --- | --- |
| CN1CCC[C@H]1COc1nc(N2C[C@H]3CC[C@@H](C2)N3)c2ccc(-c3cccc4ccc(F)cc34)c(F)c2n1 [Example 13, 4-((1R,5S)-3,8-diazabicyclo[3.2.1]octan-3-yl)-8-fluoro-7-(7-fluoronaphthalen-1-yl)-2-(((S)-1-methylpyrrolidin-2-yl)methoxy)quinazoline] | 78 | 61.9 | 5560 |
| CN1CCC[C@H]1COc1nc(N2CC3CCC2CN3)c2cnc(-c3cc(O)cc4ccccc34)c(F)c2n1 (stereo partly drawn) [Example 14, 4-(4-(2,5-diazabicyclo[2.2.2]octan-2-yl)-8-fluoro-2-(((S)-1-methylpyrrolidin-2-yl)methoxy)pyrido[4,3-d]pyrimidin-7-yl)naphthalen-2-ol] | 36 | 30.8 | 8610 |
| CN1CCC[C@H]1COc1nc2c(c(N3CC4CCC3CN4)n1)CCN(c1cc(O)cc3ccccc13)C2 (stereo partly drawn) [Example 16, 4-(4-(2,5-diazabicyclo[2.2.2]octan-2-yl)-2-(((S)-1-methylpyrrolidin-2-yl)methoxy)-5,8-dihydropyrido[3,4-d]pyrimidin-7(6H)-yl)naphthalen-2-ol] | 300 | 152 | 5950 |
| CN1C[C@H](F)C[C@H]1COc1nc(N2C[C@H]3CC[C@@H](C2)N3)c2ccc(-c3cc(O)cc4ccccc34)c(F)c2n1 [Example 29, 4-(4-((1R,5S)-3,8-diazabicyclo[3.2.1]octan-3-yl)-8-fluoro-2-(((2S,4R)-4-fluoro-1-methylpyrrolidin-2-yl)methoxy)quinazolin-7-yl)naphthalen-2-ol] | 5 | 1.8 | 779 |
| Cc1cc2[nH]ncc2c(-c2ccc3c(N4C[C@H]5CC[C@@H](C4)N5)nc(OC[C@@H]4CCCN4C)nc3c2F)c1C [Example 30, 4-((1R,5S)-3,8-diazabicyclo[3.2.1]octan-3-yl)-7-(5,6-dimethyl-1H-indazol-4-yl)-8-fluoro-2-(((S)-1-methylpyrrolidin-2-yl)methoxy)quinazoline] | 152 | 57 | 5090 |
| CN1CC(F)(F)C[C@H]1COc1nc(N2C[C@H]3CC[C@@H](C2)N3)c2ccc(-c3cc(O)cc4ccccc34)c(F)c2n1 [Example 31, 4-(4-((1R,5S)-3,8-diazabicyclo[3.2.1]octan-3-yl)-2-(((S)-4,4-difluoro-1-methylpyrrolidin-2-yl)methoxy)-8-fluoroquinazolin-7-yl)naphthalen-2-ol] | 121 | 297 | 8500 |
